Measured values: PubChem BioAssay AID2743 (NMMLSC, 2010)
Calls of active or inactive are those of the source.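 The calls were made as follows: active = fitted half-maximal concentration for change in GFP expression of 33 µM or less; inactive = the rest.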

Test: concentration-dependent AGP1-GFP change, TOR pathway – cell-based, flow cytometry, S. cerevisiae, MLPCN hits, dose response (AID 2743)
Details: S. cerevisiae AGP1-GFP strain, flow cytometry GFP, 3 h; at 33 µM (top of the series)

Row | Structure (SMILES) | GFP fluorescence (kMESF)
1 | N/C(=N\OC(=O)c1cc(Br)ccc1Cl)c1ccccn1 | 31.3 kMESF (inactive)
2 | O=C1ON=C(c2ccccc2)/C1=C/c1ccc(-c2ccccc2[N+](=O)[O-])o1 | 29.1 kMESF (inactive)
3 | Nc1nc(N)c2nc(CNc3ccc(C(=O)NC(CCC(=O)O)C(=O)O)cc3)cnc2n1 (stereo unspecified) | 46 kMESF (inactive)
4 | CCCCCn1c(=O)c(C(=O)Nc2nc3ccccc3[nH]2)c(O)c2ccccc21 | 36.9 kMESF (inactive)
5 | O=C1C=CC(=O)N1N(c1ccccc1)c1ccccc1 | 37 kMESF (inactive)
6 | O=C(c1ccc(Cl)c([N+](=O)[O-])c1)N1CCN(c2ccccc2)CC1 | 62.6 kMESF (inactive)
7 | CC[C@@]1(c2ccccc2OC)ON(c2ccccc2C(F)(F)F)C1=O | 33.2 kMESF (inactive)
8 | COc1ccc(N=Nc2ccc(O)c3ncccc23)cc1 | 40.8 kMESF (inactive)
9 | O=C1c2cccc3c([N+](=O)[O-])ccc(c23)C(=O)N1c1ccccn1 | 35.2 kMESF (inactive)
10 | COc1cc(/C=C2\CC/C(=C\c3cc(OC)c(O)c(OC)c3)C2=O)cc(OC)c1O | 34.6 kMESF (inactive)
11 | CCCCNc1c2c3c(cccc3n(C)c1=O)C(=O)c1ccccc1-2 | 36.3 kMESF (inactive)
12 | COc1ccccc1N1C(=O)c2cccc3c(C(=O)O)ccc(c23)C1=O | 49 kMESF (inactive)
13 | O=C1C=CC(=O)N1c1ccc(OC(F)F)cc1 | 27.8 kMESF (inactive)
14 | Oc1c(I)cc(I)c2cccnc12 | 24.6 kMESF (inactive)
15 | Cc1ccc(C2=NN(S(C)(=O)=O)C(c3ccc4c(c3)OCO4)C2)cc1 (stereo unspecified) | 44.1 kMESF (inactive)
16 | COc1ccc(C2=CC3=C(Br)C(=O)C(C)(O)C(=O)C3=CO2)cc1 (stereo unspecified) | 2.12 kMESF (inactive)
17 | COc1ccc(N2C(=O)CC(Sc3ncn[nH]3)C2=O)c(OC)c1 (stereo unspecified) | 36.2 kMESF (inactive)
18 | CCOC(=O)COc1ccc2ccccc2c1/C=C/[N+](=O)[O-] | 29.3 kMESF (inactive)

Row | Structure (SMILES) | GFP fluorescence (kMESF)
19 | Oc1c(CN2CCCCC2)cc(Br)c2cccnc12 | 46.9 kMESF (inactive)
20 | O=C1C=C(c2ccccc2)C(=O)N1Nc1ccccc1 | 40.8 kMESF (inactive)
21 | CC1(C)C[C@H]2C=C(C=O)[C@]3(C=O)C[C@]3(C)[C@H]2C1 | 36.7 kMESF (inactive)
22 | C=CCn1c(C)c(/C=C/c2cc[n+](C)cc2)c2ccccc21 | 42.5 kMESF (inactive)
23 | CC(c1ccccc1)N1C(=O)/C(=C/c2ccncc2)SC1=S (stereo unspecified) | 24.4 kMESF (inactive)
24 | COc1ccc(N=Cc2nc(-c3ccccc3)oc2OC(C)=O)cc1 | 35 kMESF (inactive)
25 | COC(CNC(=O)c1ccc2c3c(onc13)-c1ccccc1C2=O)OC | 1.89 kMESF (inactive)
26 | Cc1cc(NC(c2ccc(Cl)cc2)c2ccc3cccnc3c2O)no1 (stereo unspecified) | 34 kMESF (inactive)
27 | COC(=O)CCCC1=CC2=CC(=O)C(C)(OC(=O)CCc3ccccc3)C(=O)C2=CO1 (stereo unspecified) | 29.2 kMESF (inactive)
28 | Cc1cc(C)c(S(=O)(=O)N2CCC(C(=O)NCc3ccc(Cl)cc3Cl)CC2)c(C)c1 | 37.4 kMESF (inactive)
29 | Cc1ccc(/C=C2\C(=O)NC(=S)N(c3ccc(F)cc3)C2=O)s1 | 31.9 kMESF (inactive)
30 | COc1ccc(N/N=C(\C#N)C(N)=O)cc1 | 52.4 kMESF (inactive)
31 | O=C(Nc1ccccc1)c1nnsc1S(=O)(=O)c1ccc(Cl)cc1 | 38.4 kMESF (inactive)
32 | O=C(/C=C/c1ccccc1[N+](=O)[O-])c1ccccc1Br | 50.7 kMESF (inactive)
33 | N/C(Cc1ccc(Cl)cc1)=N\OC(=O)c1cccc2ccccc12 | 33 kMESF (inactive)
34 | Cc1cc(C)c(S(=O)(=O)ON2C(=O)c3ccccc3C2=O)cc1C | 42.8 kMESF (inactive)
35 | O=C(CCS(=O)(=O)c1ccccc1)Nc1nc(-c2ccccn2)cs1 | 35.9 kMESF (inactive)
36 | O=C1C=CC(=O)N1c1ccc(N2CCCCC2)cc1 | 46.9 kMESF (inactive)
